Where two headings read alike, the source gives them in different places.
Experiments:
Caenorhabditis elegans = experiment: Toxicity test, adult Caenorhabditis elegans, 96 well micro plate; assay type: in vivo; settings: for mortality at 50 ppm / mortality at 100 ppm / mortality at 200 ppm / mortality at 300 ppm / mortality at 400 ppm: Caenorhabditis elegans
Protocol: (§1) Methodology: Toxicity tests were conducted using J2 juveniles of Meloidogyne incognita adult Caenorhabditis elegans collected from nematode-infested tomato plant roots and culture Petri plates, respectively. Test concentrations of 50, 100, 200, 300, or 400 ppm were prepared in 0.2% dimethylsulfoxide (DMSO) in tap water. Aliquots (300 microliters (ul)) were applied to a 96 well micro plate and a 20 ul aqueous solution containing nematodes was added. The number of nematodes in 20 ul ranged from 17 to 30. Micro plates were sealed with Parafilm™ and incubated at room temperature. Similar tests conducted with 0.2% DMSO in tap water served as controls. Nematode mortality was checked at 24, 48, 72, 120, and 168 hr after incubation. Nematodes that were motionless for 30 sec when observed under a stereomicroscope were considered paralyzed and included in mortality counts. Each concentration was replicated five times and mean percent mortality was calculated after correcting for control mortality using Abbott's formula.
(§2) Data Analysis: Mortality data were analyzed using PROC PROBIT (SAS) program and LC50 values were estimated.

Meloidogyne incognita = experiment: Toxicity test, J2 juveniles of Meloidogyne incognita, 96 well micro plate; assay type: in vivo; settings: for mortality at 50 ppm / mortality at 100 ppm / mortality at 200 ppm / mortality at 300 ppm / mortality at 400 ppm: Meloidogyne incognita
Protocol: as §1, §2

[1] = 24 hr, read-out: Corrected Mortality (%)
[2] = 48 hr, read-out: Corrected Mortality (%)
[3] = 72 hr, read-out: Corrected Mortality (%)
[4] = 120 hr, read-out: Corrected Mortality (%)
[5] = 120 hr, read-out: Mortality (%)
[6] = 168 hr, read-out: Corrected Mortality (%)
[7] = 168 hr, read-out: Mortality (%)

O=S(=O)(O)c1cc(N=C=S)ccc1/C=C/c1ccc(N=C=S)cc1S(=O)(=O)O [DIDS, trans-4,4′-diisothiocyanatostilbene-2,2′-disulfonic acid, reference compound]
mortality at 50 ppm (Caenorhabditis elegans; [1]): 14% | mortality at 50 ppm (Caenorhabditis elegans; 24 hr, read-out: Mortality (%)): 16% | mortality at 50 ppm (Caenorhabditis elegans; [2]): 34% | mortality at 50 ppm (Caenorhabditis elegans; 48 hr, read-out: Mortality (%)): 36% | mortality at 50 ppm (Caenorhabditis elegans; [3]): 56% | mortality at 50 ppm (Caenorhabditis elegans; 72 hr, read-out: Mortality (%)): 58% | mortality at 50 ppm (Caenorhabditis elegans; [4]): 74% | mortality at 50 ppm (Caenorhabditis elegans; [5]): 76% | mortality at 50 ppm (Caenorhabditis elegans; [6]): 98% | mortality at 50 ppm (Caenorhabditis elegans; [7]): 98% | mortality at 100 ppm (Caenorhabditis elegans; [1]): 18% | mortality at 100 ppm (Caenorhabditis elegans; 24 hr, read-out: Mortality (%)): 20% | mortality at 100 ppm (Caenorhabditis elegans; [2]): 43% | mortality at 100 ppm (Caenorhabditis elegans; 48 hr, read-out: Mortality (%)): 45% | mortality at 100 ppm (Caenorhabditis elegans; [3]): 68% | mortality at 100 ppm (Caenorhabditis elegans; 72 hr, read-out: Mortality (%)): 69% | mortality at 100 ppm (Caenorhabditis elegans; [4]): 88% | mortality at 100 ppm (Caenorhabditis elegans; [5]): 89% | mortality at 100 ppm (Caenorhabditis elegans; [6]): 100% | mortality at 100 ppm (Caenorhabditis elegans; [7]): 100% | mortality at 200 ppm (Caenorhabditis elegans; [1]): 22% | mortality at 200 ppm (Caenorhabditis elegans; 24 hr, read-out: Mortality (%)): 24% | mortality at 200 ppm (Caenorhabditis elegans; [2]): 44% | mortality at 200 ppm (Caenorhabditis elegans; 48 hr, read-out: Mortality (%)): 46% | mortality at 200 ppm (Caenorhabditis elegans; [3]): 77% | mortality at 200 ppm (Caenorhabditis elegans; 72 hr, read-out: Mortality (%)): 77% | mortality at 200 ppm (Caenorhabditis elegans; [4]): 97% | mortality at 200 ppm (Caenorhabditis elegans; [5]): 97% | mortality at 200 ppm (Caenorhabditis elegans; [6]): 100% | mortality at 200 ppm (Caenorhabditis elegans; [7]): 100% | mortality at 300 ppm (Caenorhabditis elegans; [1]): 20% | mortality at 300 ppm (Caenorhabditis elegans; 24 hr, read-out: Mortality (%)): 22% | mortality at 300 ppm (Caenorhabditis elegans; [2]): 52% | mortality at 300 ppm (Caenorhabditis elegans; 48 hr, read-out: Mortality (%)): 53% | mortality at 300 ppm (Caenorhabditis elegans; [3]): 81% | mortality at 300 ppm (Caenorhabditis elegans; 72 hr, read-out: Mortality (%)): 83% | mortality at 300 ppm (Caenorhabditis elegans; [4]): 100% | mortality at 300 ppm (Caenorhabditis elegans; [5]): 99% | mortality at 300 ppm (Caenorhabditis elegans; [6]): 100% | mortality at 300 ppm (Caenorhabditis elegans; [7]): 100% | mortality at 400 ppm (Caenorhabditis elegans; [1]): 23% | mortality at 400 ppm (Caenorhabditis elegans; 24 hr, read-out: Mortality (%)): 25% | mortality at 400 ppm (Caenorhabditis elegans; [2]): 58% | mortality at 400 ppm (Caenorhabditis elegans; 48 hr, read-out: Mortality (%)): 59% | mortality at 400 ppm (Caenorhabditis elegans; [3]): 90% | mortality at 400 ppm (Caenorhabditis elegans; 72 hr, read-out: Mortality (%)): 90% | mortality at 400 ppm (Caenorhabditis elegans; [4]): 100% | mortality at 400 ppm (Caenorhabditis elegans; [5]): 100% | mortality at 400 ppm (Caenorhabditis elegans; [6]): 100% | mortality at 400 ppm (Caenorhabditis elegans; [7]): 100% | LC50 (ppm) (Caenorhabditis elegans; Day 2): 237 ppm | LC50 (ppm) (Caenorhabditis elegans; Day 3): 38 ppm | LC50 (ppm) (Caenorhabditis elegans; Day 5): 27 ppm | LC50 (ppm) (Caenorhabditis elegans; Day 7): 3 ppm | LC50 (ppm) (Meloidogyne incognita; Day 2): 356 ppm | LC50 (ppm) (Meloidogyne incognita; Day 3): 36 ppm | LC50 (ppm) (Meloidogyne incognita; Day 5): 20 ppm | LC50 (ppm) (Meloidogyne incognita; Day 7): 4 ppm | mortality at 50 ppm (Meloidogyne incognita; [1]): 9% | mortality at 50 ppm (Meloidogyne incognita; 24 hr, read-out: Mortality (%)): 11% | mortality at 50 ppm (Meloidogyne incognita; [2]): 36% | mortality at 50 ppm (Meloidogyne incognita; 48 hr, read-out: Mortality (%)): 39% | mortality at 50 ppm (Meloidogyne incognita; [3]): 56% | mortality at 50 ppm (Meloidogyne incognita; 72 hr, read-out: Mortality (%)): 59% | mortality at 50 ppm (Meloidogyne incognita; [4]): 73% | mortality at 50 ppm (Meloidogyne incognita; [5]): 75% | mortality at 50 ppm (Meloidogyne incognita; [6]): 98% | mortality at 50 ppm (Meloidogyne incognita; [7]): 98% | mortality at 100 ppm (Meloidogyne incognita; [1]): 16% | mortality at 100 ppm (Meloidogyne incognita; 24 hr, read-out: Mortality (%)): 18% | mortality at 100 ppm (Meloidogyne incognita; [2]): 39% | mortality at 100 ppm (Meloidogyne incognita; 48 hr, read-out: Mortality (%)): 41% | mortality at 100 ppm (Meloidogyne incognita; [3]): 61% | mortality at 100 ppm (Meloidogyne incognita; 72 hr, read-out: Mortality (%)): 64% | mortality at 100 ppm (Meloidogyne incognita; [4]): 84% | mortality at 100 ppm (Meloidogyne incognita; [5]): 85% | mortality at 100 ppm (Meloidogyne incognita; [6]): 99% | mortality at 100 ppm (Meloidogyne incognita; [7]): 99% | mortality at 200 ppm (Meloidogyne incognita; [1]): 19% | mortality at 200 ppm (Meloidogyne incognita; 24 hr, read-out: Mortality (%)): 21% | mortality at 200 ppm (Meloidogyne incognita; [2]): 43% | mortality at 200 ppm (Meloidogyne incognita; 48 hr, read-out: Mortality (%)): 45% | mortality at 200 ppm (Meloidogyne incognita; [3]): 67% | mortality at 200 ppm (Meloidogyne incognita; 72 hr, read-out: Mortality (%)): 69% | mortality at 200 ppm (Meloidogyne incognita; [4]): 90% | mortality at 200 ppm (Meloidogyne incognita; [5]): 91% | mortality at 200 ppm (Meloidogyne incognita; [6]): 100% | mortality at 200 ppm (Meloidogyne incognita; [7]): 100% | mortality at 300 ppm (Meloidogyne incognita; [1]): 20% | mortality at 300 ppm (Meloidogyne incognita; 24 hr, read-out: Mortality (%)): 22% | mortality at 300 ppm (Meloidogyne incognita; [2]): 46% | mortality at 300 ppm (Meloidogyne incognita; 48 hr, read-out: Mortality (%)): 48% | mortality at 300 ppm (Meloidogyne incognita; [3]): 77% | mortality at 300 ppm (Meloidogyne incognita; 72 hr, read-out: Mortality (%)): 79% | mortality at 300 ppm (Meloidogyne incognita; [4]): 96% | mortality at 300 ppm (Meloidogyne incognita; [5]): 96% | mortality at 300 ppm (Meloidogyne incognita; [6]): 100% | mortality at 300 ppm (Meloidogyne incognita; [7]): 100% | mortality at 400 ppm (Meloidogyne incognita; [1]): 22% | mortality at 400 ppm (Meloidogyne incognita; 24 hr, read-out: Mortality (%)): 24% | mortality at 400 ppm (Meloidogyne incognita; [2]): 55% | mortality at 400 ppm (Meloidogyne incognita; 48 hr, read-out: Mortality (%)): 57% | mortality at 400 ppm (Meloidogyne incognita; [3]): 78% | mortality at 400 ppm (Meloidogyne incognita; 72 hr, read-out: Mortality (%)): 89% | mortality at 400 ppm (Meloidogyne incognita; [4]): 100% | mortality at 400 ppm (Meloidogyne incognita; [5]): 100% | mortality at 400 ppm (Meloidogyne incognita; [6]): 100% | mortality at 400 ppm (Meloidogyne incognita; [7]): 100%

Source: patent US20080103205A1, “Pesticidal compositions and methods of use” (priority 2006, published 2008)
